Where two headings read alike, the source gives them in different places.
Legend:
Format in all cases: cell-based
PANC-1 cells = test: Cell count / cell proliferation assay in PANC-1 cells; conditions: for effect on PANC-1 cell numbers / proliferation: in words; for IC50: cells counted after 48 hours incubation, normalized to controls, read-out: Estimated IC50 values, PANC-1
Procedure: (§1) FIGS. 5A and 5B show the results of cell toxicity experiments that were conducted on SW1990 and PANC-1 cells with the analogs indicated. Cells were counted after incubation with each analog for 48 hours. Cell counts were then normalized to controls, data was log transformed, and IC50 values were calculated. […]
(§2) Cells were incubated at a range of concentrations of the UAP inhibitors (typically at 0, 10, 25, 50, 100, and 150 μM) and the number of cells were quantified, typically by automated counting (e.g., with a Coulter Counter Z2 instrument) after 1, 2, 3, or 5 days of exposure.

SW1990 cells = test: Cell count / cell proliferation assay in SW1990 cells; conditions: for effect on SW1990 cell numbers / proliferation: in words; for IC50: cells counted after 48 hours incubation, normalized to controls, read-out: Estimated IC50 values, SW1990
Procedure: FIG. 3 depicts the result of cell count assays after two days of incubation with an exemplary compound, Ac4Glc2Bz. The cells treated with the compound are, respectively, SW1990 and PANC-1, which are pancreatic cancer cell lines. Meanwhile, control samples were treated with solvent vehicle of 2.5 μL DMSO per 1 mL of medium.
as §1, §2

[1] = system: primary human adipose stem cells (hASCs); test: Cell count assay in control cells (human ASCs); conditions: Homo sapiens, 48 h; two days of exposure; 300 is the highest concentration tested
Text: FIG. 4A and FIG. 4B depict histogram results of cell count assays after two days of exposure to each analog in cancer cell lines (SW1990 and PANC-1) and in control cells (human ASCs). […] In all cases, IC50 values were greater than 300 which is the highest concentration tested, for the ACSs, while the Ac4Glc2Bz analogs and Ac4Gal2Bz analogs were effective to reduce cell numbers in both cancer cell lines.

Row | IC50 [1] | Compound | effect on PANC-1 cell numbers / proliferation (PANC-1 cells) | effect on SW1990 cell numbers / proliferation (SW1990 cells) | IC50 (PANC-1 cells) | IC50 (SW1990 cells) | IC50 (PANC-1 cells; Homo sapiens, PANC-1) | IC50 (SW1990 cells; Homo sapiens, SW1990)
1 |  | CC(=O)OC1OC(CO)C(OC(C)=O)C(OC(C)=O)C1NC(=O)c1ccccc1 (stereo not shown) [1,3,4-O-Ac3Glc2Bz] | consistently reduced cell numbers | consistently reduced cell numbers |  |  |  | 
2 |  | CC(=O)OCC1OC(O)[C@@H](NC(=O)c2ccccc2)[C@@H](OC(C)=O)[C@@H]1OC(C)=O (stereo partly shown) [3,4,6-O—Ac3Glc2Bz] |  | remarkable inhibition | 76.1 ± 1.6 µM | 37.1 ± 1.8 µM |  | 
3 | > 300 µM | CC(=O)OCC1OC(OC(C)=O)[C@@H](NC(=O)c2ccccc2)[C@@H](OC(C)=O)[C@H]1OC(C)=O (stereo partly shown) [Ac4Gal2Bz] |  | remarkable inhibition |  |  | 107 ± 1.1 µM | 39.1 ± 2.2 µM
4 |  | CC(=O)OC[C@H]1OC(OC(C)=O)[C@H](NC(=O)c2ccccc2O)[C@@H](OC(C)=O)[C@@H]1OC(C)=O (stereo partly shown) [Ac4Glc2NBz-2-OH] | consistently reduced cell numbers | consistently reduced cell numbers | 49.9 ± 1.3 µM | 140.3 ± 1.4 µM |  | 
5 |  | CC(=O)OCC1OC(OC(C)=O)[C@@H](NC(=O)C2CCCCC2)[C@@H](OC(C)=O)[C@H]1OC(C)=O (stereo partly shown) [Ac4GlcNCyx] |  |  |  |  | 84.1 ± 1.5 µM | 160.9 ± 1.4 µM
6 |  | CC(=O)OCC1OC(OC(C)=O)[C@H](NC(=O)c2ccccc2)[C@@H](OC(C)=O)[C@H]1OC(C)=O (stereo partly shown) [Ac4Man2Bz] | substantially low effect | substantially low effect |  |  | 100 ± 1.8 µM | 148 ± 1.5 µM

— patent US11827663B2, “Use of UAP inhibitors to inhibit flux through the hexosamine biosynthetic pathway” (The Johns Hopkins University, priority 2014, dated 2023)
